In data set [1] the test system is circulating CFU-GM, BFU-E, CFU-GEMM progenitor cells and nucleated cells. The data set can be described thus: Progenitor/stem cell mobilization in mice after single subcutaneous injection. The data set is classed as in vivo, C3H/HeJ mice. The procedure:
A further study was conducted to determine whether X4P-001 mobilizes progenitor/stem cells in mice. All experiments were performed in […] mice. X4P-001 and AMD3 100/plerixafor were administered via single subcutaneous injection at the doses described below. The mobilization capacity of X4P-001 was assessed by the numbers of granulocyte-macrophage (CFU-GM), erythroid (BFU-E) and multipotential (CFU-GEMM) progenitor cells per mL of blood. The progenitors were stimulated to form colonies in vitro with the combination of 1 U/mL rhu EPO, 50 ng/mL rmu SLF, 5% vol/vol pokeweed mitogen mouse spleen cell conditioned medium (PWMSCM), and 0.1 mM hemin. Plates were scored 7 days after incubation at 37° C., […] and in a humidified chamber.
In the first experiment (data shown in Table 7), mice received a dose of 5 mg/kg- and the number of progenitors in the circulating blood was measured at various time points (0.25, 0.5, 1, 2, 6 and 24 hours).
An X4P-001 dose-response was performed by measurement of the number of circulating progenitors in the blood at 1 hour post-injection at various doses (1.5, 2.5, 5, 10 and 20 mg/kg).
A final experiment was performed to compare the progenitor cell mobilization capacity of X4P-001 and AMD3100/plerixafor.

The test system of data set [2] is WBC, neutrophil and lymphocyte counts. The data set is described as follows: Hematologic effects of a single oral dose in the male Beagle dog. It counts as in vivo. The procedure:
Three fasted male Beagle dogs received a single dose of X4P-001 in aqueous solution by oral gavage at dose levels of 5, 15, and 35 mg/kg (1 dog per dose level) in a volume of 1 mL/kg. Blood samples (approximately 3 mL each) were obtained at multiple timepoints from each animal by direct venipuncture of the jugular vein and collected using Vacutainer® tubes containing K3EDTA as the anticoagulant. Blood samples were obtained at pre-dose, and 0.25, 0.5, 0.75, 1, 1.5, 2, 3, 4, 7, 12, and 24 hours post-dose. Blood samples were stored at ambient room temperature prior to automated differential analysis.
Body weights were determined prior to dosing on the day of test article administration.
Hematology parameters included the following: • White Blood Cell Count (WBC) • Differential white blood cell count (absolute and relative) • Neutrophil • Lymphocytes • Monocytes • Eosinophils • Basophils • Large Unstained Cells (LUC) • Hematocrit (HCT) • Hemoglobin (HGB) • Mean Corpuscular Hemoglobin (MCH) • Mean Corpuscular Hemoglobin Concentration (MCHC) • Mean Corpuscular Volume (MCV) • Platelet Count (PLT). • Red Blood Cell Count (RBC) Results

The conditions of data set [3]: 400-mg single-dose subject (Stone, 2007); cited from earlier work.
In data set [4] the test system is hematology and coagulation. The data set is described as follows: 28-day GLP oral (capsule) toxicity study in the Beagle dog with 14-day recovery. The data set is classed as in vivo. On the procedure: A 28-Day GLP oral (capsule) toxicology study was conducted with […]-001 in the male and female beagle dog, and hematology effects were observed, with […]-001 administered twice-daily (at least 7 hours apart) by oral capsule for 28 days. A subset of treated animals was evaluated after a 14-day recovery period. [table] [table]

The target in another data set is CXCR4 (Homo sapiens, UniProt P61073). As to conditions: SDF-1α dose/response in calcium flux with increasing X4P-001; cited from earlier work.
Chain of CXCR4 (P61073 whole entry): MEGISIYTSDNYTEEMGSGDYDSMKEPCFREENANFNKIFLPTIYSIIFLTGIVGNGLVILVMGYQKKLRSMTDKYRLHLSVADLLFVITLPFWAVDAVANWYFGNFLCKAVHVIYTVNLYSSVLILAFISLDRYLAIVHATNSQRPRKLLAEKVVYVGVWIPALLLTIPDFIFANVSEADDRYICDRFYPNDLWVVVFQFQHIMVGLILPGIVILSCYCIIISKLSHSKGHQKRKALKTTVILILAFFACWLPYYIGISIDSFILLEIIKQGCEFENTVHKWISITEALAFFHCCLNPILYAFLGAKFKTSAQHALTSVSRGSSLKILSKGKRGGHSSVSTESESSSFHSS
For data set [5] the following is noted: in vivo. The procedure: In certain embodiments, the dosage composition may be provided twice a day in divided dosage, approximately 12 hours apart. In other embodiments, the dosage composition may be provided once daily.
The conditions of data set [6]: human, in vivo. On the procedure: In some embodiments, the dose is selected to provide consistent clinically relevant elevations of both ANC and ALC, with low risk of significant adverse effects. Dosage of 400 mg per day BID for 3.5 days (healthy volunteers) (Stone 2007) and 200 mg BID for 8-10 days (healthy volunteers and HIV patients) were well-tolerated with no pattern of adverse events or clinically significant laboratory changes.

For data set [7] the following is noted: cited from earlier work; for Bone pain incidence, as high as: Ferguson 2015 (filgrastim), Kirshner 2012 (pegfilgrastim).
Where [8] appears, read: Table 9 comparison, 5 mg/kg s.c., @ - 60″ (1 h).
[9] abbreviates: females, 10 mg/kg/d, Day 28, p < 0.05.
Setting [10] is: females, 30 mg/kg/d, Day 28, p < 0.05.
The mark [11] stands for this setting: females, 100 mg/kg/d, Day 28, p < 0.05.
[12] abbreviates: males, 100 mg/kg/d, Day 28, p < 0.05.
Setting [13] is: Table 7 time course, 5 mg/kg s.c., @ - 2′ (2 h).
Where [14] appears, read: Table 7 time course, 5 mg/kg s.c., @ - 6′ (6 h).
Setting [15] is: Table 7 time course, 5 mg/kg s.c., @ - 15″ ([…]).
Where [16] appears, read: Table 7 time course, 5 mg/kg s.c., @ - 24′ (24 h).
[17] abbreviates: Table 7 time course, 5 mg/kg s.c., @ - 30″ (0.5 h).
Setting [18] is: Table 7 time course, 5 mg/kg s.c., @ - 60″ (1 h).
Setting [19] is: Table 8 dose response, 1 hour post-injection, 1.5 mg/kg.
[20] abbreviates: Table 8 dose response, 1 hour post-injection, 5 mg/kg.
Where [21] appears, read: Table 8 dose response, 1 hour post-injection, 10 mg/kg.
The mark [22] stands for this setting: Table 8 dose response, 1 hour post-injection, 20 mg/kg.
Setting [23] is: Table 9 comparison, 5 mg/kg s.c., @ - 2′ (2 h).
[24] abbreviates: Table 9 comparison, 5 mg/kg s.c., @ - 15″ ([…]).
Where [25] appears, read: Table 9 comparison, 5 mg/kg s.c., @ - 30″ (0.5 h).

These results are taken from US12728125B2, “Methods for treating neutropenia” (X4 Pharmaceuticals, Inc., priority 2020, dated 2026).

Marks after values point to notes of the source that are not given here.

Turning to `c1cc(CN2CCCNCCNCCCNCC2)ccc1CN1CCCNCCNCCCNCC1` [AMD3100, plerixafor, reference compound], in data set [1] (setting [8]), the “BFU (BFU-E), Mean” value is given as 207.7 per mL of blood; the “GEMM (CFU-GEMM), Mean” value is given as 138.5 per mL of blood; the “GM (CFU-GM), Mean” value is recorded as 1950.3 per mL of blood.
Turning to `NCCCCN(Cc1nc2ccccc2[nH]1)[C@H]1CCCc2cccnc21` [Mavorixafor, mavorixafor], the “Time at which increases typically peaked” value in data set [2] (5, 15, 35 mg/kg oral) amounted to 12 h. Also, in data set [2] (single oral dose 5, 15, 35 mg/kg), the Other hematological effects entry was “No other hematological effects were observed”. Moreover, the “Increase in circulating white blood cells (leukocytosis) above baseline” value in data set [3] is reported as 2.9 fold. Besides, in data set [4] (100 mg/kg dose group), the “Hematology results after the 14-day recovery period” value is “returned to within normal levels”. In addition, the “Lymphocytes (abs), increase” value in data set [4] (females, 10 mg/kg/d, Day 28) is “F incr 1.4×”; in data set [4] (setting [10]), “F incr 1.6×†”; in data set [4] (setting [11]), “F incr 1.4×†”; in data set [4] (males, 10 mg/kg/d, Day 28), “M incr 1.3×;”; in data set [4] (males, 30 mg/kg/d, Day 28), “M incr 1.6×;”; in data set [4] (setting [12]) it was “M incr 2.3×†;”. In addition, the “Monocytes (abs), increase” value is recorded as “F incr 1.6×†” in data set [4] (setting [9]); “F incr 1.9×†” in data set [4] (setting [10]); “F incr 2.4×†” in data set [4] (setting [11]); “M incr 1.2×;” in data set [4] (males, 10 mg/kg/d, Day 28); “M incr 1.3×;” in data set [4] (males, 30 mg/kg/d, Day 28); “M incr 1.9×†;” in data set [4] (setting [12]). For the same molecule, the “Neutrophils (abs), increase” value was “F incr 1.9×†” in data set [4] (setting [9]); “F incr 2.3×†” in data set [4] (setting [10]); “F incr 2.8×†” in data set [4] (setting [11]); “M incr 1.2×;” in data set [4] (males, 10 mg/kg/d, Day 28); “M incr 1.2×;” in data set [4] (males, 30 mg/kg/d, Day 28); “M incr 1.8×;” in data set [4] (males, 100 mg/kg/d, Day 28). Moreover, the “Reticulocytes, decrease” value in data set [4] (setting [11]) is “F decr 0.24†”. Besides, the “Mode of CXCR4 inhibition” value at CXCR4 is given as “allosteric inhibitor”. For the same molecule, in data set [5], the Terminal half-life result is given as “approximately 14.5 hrs”. In addition, the “Overall tolerability in clinical studies” value in data set [6] is “generally well tolerated”. For the same molecule, the “BFU (BFU-E), Mean” value is reported as 165.3 per mL of blood in data set [1] (setting [13]); 99.9 per mL of blood in data set [1] (setting [14]); 148.8 per mL of blood in data set [1] (setting [15]); 84.6 per mL of blood in data set [1] (setting [16]); 230.4 per mL of blood in data set [1] (setting [17]); 235.1 per mL of blood in data set [1] (setting [18]). For the same molecule, the “BFU (BFU-E), Mean” value in data set [1] (setting [19]) was 143.8 per mL of blood; in data set [1] (setting [20]), 181.6 per mL of blood; in data set [1] (setting [21]), 268.1 per mL of blood; in data set [1] (setting [22]) it was 261.4 per mL of blood; in data set [1] (setting [23]), 108.5 per mL of blood; in data set [1] (setting [24]) it was 188.9 per mL of blood. The results for the “BFU (BFU-E), Mean” value in data set [1] (setting [25]) and in data set [1] (setting [8]) were 151.9 per mL of blood and 144.3 per mL of blood, respectively. Further, the “GEMM (CFU-GEMM), Mean” value was 68.9 per mL of blood in data set [1] (setting [13]); 37.6 per mL of blood in data set [1] (setting [14]); 65.6 per mL of blood in data set [1] (setting [15]); 37.7 per mL of blood in data set [1] (setting [16]); 99.6 per mL of blood in data set [1] (setting [17]); 103.1 per mL of blood in data set [1] (setting [18]). Also, the “GEMM (CFU-GEMM), Mean” value was 53.3 per mL of blood in data set [1] (setting [19]); 141.0 per mL of blood in data set [1] (setting [20]); 224.4 per mL of blood in data set [1] (setting [21]); 145.0 per mL of blood in data set [1] (setting [22]); 62.4 per mL of blood in data set [1] (setting [23]); 93.8 per mL of blood in data set [1] (setting [24]). Also, the “GEMM (CFU-GEMM), Mean” value in data set [1] (setting [25]) is reported as 79.0 per mL of blood; in data set [1] (setting [8]), 102.2 per mL of blood. For the same molecule, the “GM (CFU-GM), Mean” value in data set [1] (setting [13]) was 897.5 per mL of blood; in data set [1] (setting [14]), 387.5 per mL of blood; in data set [1] (setting [15]) it was 785.1 per mL of blood; in data set [1] (setting [16]) it was 386.3 per mL of blood; in data set [1] (setting [17]) it was 1273.8 per mL of blood; in data set [1] (setting [18]) it was 866.0 per mL of blood. In addition, the “GM (CFU-GM), Mean” value in data set [1] (setting [19]) is recorded as 428.0 per mL of blood; in data set [1] (setting [20]) it was 1119.8 per mL of blood; in data set [1] (setting [21]), 1444.2 per mL of blood; in data set [1] (setting [22]), 1314.2 per mL of blood; in data set [1] (setting [23]), 619.6 per mL of blood; in data set [1] (setting [24]), 588.3 per mL of blood. For the same molecule, the “GM (CFU-GM), Mean” value in data set [1] (setting [25]) is listed as 705.9 per mL of blood; in data set [1] (setting [8]) it was 761.4 per mL of blood.

B1: pegfilgrastim (protein, chains of the INN, looked up)
chain: TPLGPASSLPQSFLLKCLEQVRKIQGDGAALQEKLCATYKLCHPEELVLLGHSLGIPWAPLSSCPSQALQLAGCLSQLHSGLFLYQGLLQALEGISPELGPTLDTLQLDVADFATTIWQQMEELGMAPALQPTQGAMPAFASAFQRRAGGVLVASHLQSFLEVSYRVLRHLAQP
modifications: PEG conjugate, N-terminal methionine
notes: pegylated G-CSF
As for B1, the “Bone pain incidence, as high as” value in data set [7] is 59%. In addition, in data set [7] (Kirshner et al. 2012), the “Severe bone pain incidence” value is reported as 24%.

B2: filgrastim (protein, chains of the INN, looked up)
chain: MTPLGPASSLPQSFLLKCLEQVRKIQGDGAALQEKLCATYKLCHPEELVLLGHSLGIPWAPLSSCPSQALQLAGCLSQLHSGLFLYQGLLQALEGISPELGPTLDTLQLDVADFATTIWQQMEELGMAPALQPTQGAMPAFASAFQRRAGGVLVASHLQSFLEVSYRVLRHLAQP
modifications: N-terminal methionine, recombinant
notes: granulocyte colony-stimulating factor, standard of care for severe chronic neutropenia
B2: the “Bone pain incidence, as high as” value in data set [7] was 66%. The “Bone pain incidence reported on label” value in data set [7] (label) was 24%.
